Counter-ions that a name gives are not always drawn.
Experiments:
Type in all cases: in vivo
[1] = test system: Xanthium strumarium; assay: Herbicidal activity, foliar application of single compounds (Test Examples 1 to 5); set-up: key: 0 means the state where the plants are as sound as before the application of the active compound; 1, 2, 3 and 4 mean varying degrees of the enfeebled state of the plants between 0 and 5; 1, 2, 3 and 4 mean varying degrees of the enfeebled state of the plants between 0 and 5; 1, 2, 3 and 4 mean varying degrees of the enfeebled state of the plants between 0 and 5; 1, 2, 3 and 4 mean varying degrees of the enfeebled state of the plants between 0 and 5; 5 is the state where the plants are withered or killed by application of the active compound; conditions: 3 weeks after application
Description: (§1) In these examples, all parts means parts by weight, unless otherwise noted. The herbicidal activity was evaluated on a scale of 6 degrees. In other words, 0 means the state where the plants are as sound as before the application of the active compound, while 5 is the state where the plants are withered or killed by application of the active compound, and 1, 2, 3 and 4 mean varying degrees of the enfeebled state of the plants between 0 and 5.
(§2) The diphenyl ethers shown in Table 2 were added to 5000 parts of a mixture of acetone and water (1 : 1 by volume), and 2.6 parts of a nonionic surfactant (Sorpol 2680, tradename) was added to form a solution, so that the ether becomes the prescribed amount in each solution.
(§3) Seeds of plants were sown in the soil, cultivated for 2 to 3 weeks, after germination, then the plants were used for the tests.
(§4) The prepared solution was applied to these plants at the prescribed rate of application in total, then the plants were continuously cultivated for 3 weeks without applying the solution.
(§5) The alphabetical symbols in Tables 2 and 3 represent the following plants, respectively: a: Digitaria adscendens b: Setaria viridis c: Sorghum halepense d: Chenopodium album var. centrorubrum e: Amaranthus mangostanus f: Astragalus sinicus g: Abutilon theophrosti h: Solanum nigrum i: Xanthium strumarium j: Soybean; Glycine max k: Corn; Zea mays Table 2

[2] = test system: Setaria viridis; assay: as above; set-up: key: 0 means the state where the plants are as sound as before the application of the active compound; 1, 2, 3 and 4 mean varying degrees of the enfeebled state of the plants between 0 and 5; 1, 2, 3 and 4 mean varying degrees of the enfeebled state of the plants between 0 and 5; 1, 2, 3 and 4 mean varying degrees of the enfeebled state of the plants between 0 and 5; 1, 2, 3 and 4 mean varying degrees of the enfeebled state of the plants between 0 and 5; 5 is the state where the plants are withered or killed by application of the active compound; conditions: 3 weeks after application
Description: as §1, §2, §3, §4, §5

[3] = test system: Corn; Zea mays; assay: as above; set-up: key: 0 means the state where the plants are as sound as before the application of the active compound; 1, 2, 3 and 4 mean varying degrees of the enfeebled state of the plants between 0 and 5; 1, 2, 3 and 4 mean varying degrees of the enfeebled state of the plants between 0 and 5; 1, 2, 3 and 4 mean varying degrees of the enfeebled state of the plants between 0 and 5; 1, 2, 3 and 4 mean varying degrees of the enfeebled state of the plants between 0 and 5; 5 is the state where the plants are withered or killed by application of the active compound; conditions: 3 weeks after application
Description: as §1, §2, §3, §4, §5

[4] = test system: Soybean; Glycine max; assay: as above; set-up: key: 0 means the state where the plants are as sound as before the application of the active compound; 1, 2, 3 and 4 mean varying degrees of the enfeebled state of the plants between 0 and 5; 1, 2, 3 and 4 mean varying degrees of the enfeebled state of the plants between 0 and 5; 1, 2, 3 and 4 mean varying degrees of the enfeebled state of the plants between 0 and 5; 1, 2, 3 and 4 mean varying degrees of the enfeebled state of the plants between 0 and 5; 5 is the state where the plants are withered or killed by application of the active compound; conditions: 3 weeks after application
Description: as §1, §2, §3, §4, §5

[5] = test system: Solanum nigrum; assay: as above; set-up: key: 0 means the state where the plants are as sound as before the application of the active compound; 1, 2, 3 and 4 mean varying degrees of the enfeebled state of the plants between 0 and 5; 1, 2, 3 and 4 mean varying degrees of the enfeebled state of the plants between 0 and 5; 1, 2, 3 and 4 mean varying degrees of the enfeebled state of the plants between 0 and 5; 1, 2, 3 and 4 mean varying degrees of the enfeebled state of the plants between 0 and 5; 5 is the state where the plants are withered or killed by application of the active compound; conditions: 3 weeks after application
Description: as §1, §2, §3, §4, §5

[6] = test system: Digitaria adscendens; assay: as above; set-up: key: 0 means the state where the plants are as sound as before the application of the active compound; 1, 2, 3 and 4 mean varying degrees of the enfeebled state of the plants between 0 and 5; 1, 2, 3 and 4 mean varying degrees of the enfeebled state of the plants between 0 and 5; 1, 2, 3 and 4 mean varying degrees of the enfeebled state of the plants between 0 and 5; 1, 2, 3 and 4 mean varying degrees of the enfeebled state of the plants between 0 and 5; 5 is the state where the plants are withered or killed by application of the active compound; conditions: 3 weeks after application
Description: as §1, §2, §3, §4, §5

[7] = test system: Sorghum halepense; assay: as above; set-up: key: 0 means the state where the plants are as sound as before the application of the active compound; 1, 2, 3 and 4 mean varying degrees of the enfeebled state of the plants between 0 and 5; 1, 2, 3 and 4 mean varying degrees of the enfeebled state of the plants between 0 and 5; 1, 2, 3 and 4 mean varying degrees of the enfeebled state of the plants between 0 and 5; 1, 2, 3 and 4 mean varying degrees of the enfeebled state of the plants between 0 and 5; 5 is the state where the plants are withered or killed by application of the active compound; conditions: 3 weeks after application
Description: as §1, §2, §3, §4, §5

[8] = test system: Broad-leaved Plants (d, e, f, g, h, i, j); assay: Average withering rate, single and mixed solutions (Test Example 11); set-up: unit: %; conditions: 3 weeks
Source text: as §5
(§6) In each run, the compound (1) according to the invention only or the N-phosphonomethylglycine derivatives (117) only or the mixture thereof were used as in the Test Example 1 to prepare single solutions and mixed solutions by using various amounts of each components. Each of the preparations were applied to the plants as in Test Example 1 and the cultivation was continued for 3 weeks without additive application thereafter.
(§7) The results were analyzed by Tammes's method [Tammes, P.M.L.: Neth. J. Plant Path., 70, 73-80 (1964)] which was cited in "Zasso Kenkyuu" (in Japanese) (Weed Studies) 14, 12-18 […] and shown in Fig. 1 and Fig. 2.
(§8) Fig. 1 represents the average withering rate of 4 kinds of narrow-leaved plants (a, b, c, and k), while Fig. 2 gives withering rate of 7 kinds of broad-leaved plants (d, e, f, g, h, i j). As these figures show clearly, the curve binding the points of 95 % effect is inside the one of the synergistic effect, thus it can be concluded that the mixed preparation has synergistic effect.

[9] = test system: Narrow-leaved Plants (a, b, c, k); assay: as above; set-up: unit: %; conditions: 3 weeks
Source text: as §5, §6, §7, §8

[10] = Rate of Application 0.016 kg/ha
[11] = Rate of Application 0.031 kg/ha
[12] = Compound (1) 0.008 kg a.i./ha, Compound (117) 0 kg a.i./ha
[13] = Compound (1) 0.016 kg a.i./ha, Compound (117) 0 kg a.i./ha
[14] = Compound (1) 0.031 kg a.i./ha, Compound (117) 0 kg a.i./ha
[15] = Compound (1) 0 kg a.i./ha, Compound (117) 0.094 kg a.i./ha
[16] = Compound (1) 0 kg a.i./ha, Compound (117) 0.188 kg a.i./ha
[17] = Compound (1) 0 kg a.i./ha, Compound (117) 0.375 kg a.i./ha
[18] = Compound (1) 0 kg a.i./ha, Compound (117) 0.750 kg a.i./ha

For `COC(=O)C(C)Oc1cc(Oc2ccc(C(F)(F)F)cc2Cl)ccc1C#N` (stereo not drawn) [Compound (1), Methyl α-[2-cyano-5-(2-chloro-4-trifluoromethylphenoxy)phenoxy]propionate], the “herbicidal activity, Plants i” value [1, 10] was 5, the “herbicidal activity, Plants i” value [1, 11] was 5 and the “herbicidal activity, Plants b” value [2, 10] was 3. The “herbicidal activity, Plants b” value [2, 11] was 4, the “herbicidal activity, Plants k” value [3, 10] was 5 and the “herbicidal activity, Plants k” value [3, 11] was 5. For the same molecule, the “herbicidal activity, Plants j” value [4, 10] was 4, the “herbicidal activity, Plants j” value [4, 11] was 4 and the “herbicidal activity, Plants h” value [5, 10] was 5. The “herbicidal activity, Plants h” value [5, 11] was 5, the “herbicidal activity, Plants a” value [6, 10] was 4 and the “herbicidal activity, Plants a” value [6, 11] was 4. The “herbicidal activity, Plants c” value [7, 10] was 5, the “herbicidal activity, Plants c” value [7, 11] was 5 and the “Average Withering Rates of Broad-leaved Plants (d, e, f, g, h, i, j)” value (“Average Withering Rates … (d, e, f, g, h, i, j)” for short) [8, 12] was 80. The “Average Withering Rates … (d, e, f, g, h, i, j)” value [8, 13] was 80, the “Average Withering Rates … (d, e, f, g, h, i, j)” value [8, 14] was 96 and the “Average Withering Rates of Narrow-leaved Plants (a, b, c, k)” value (from here on “Average Withering Rates … (a, b, c, k)”) [9, 12] was 33. For the same molecule, the “Average Withering Rates … (a, b, c, k)” value [9, 13] was 47, the “Average Withering Rates … (a, b, c, k)” value [9, 14] was 80 and the “Average Withering Rates … (a, b, c, k)” value ([9]; Compound (1) 0.063 kg a.i./ha, Compound (117) 0 kg a.i./ha) was 93.

With `O=C(O)CNCP(=O)(O)O` [Compound (117), N-phosphonomethylglycine isopropylammonium salt] the “Average Withering Rates … (d, e, f, g, h, i, j)” value [8, 15] was 4, the “Average Withering Rates … (d, e, f, g, h, i, j)” value [8, 16] was 36 and the “Average Withering Rates … (d, e, f, g, h, i, j)” value [8, 17] was 55. For the same molecule, the “Average Withering Rates … (d, e, f, g, h, i, j)” value [8, 18] was 80, the “Average Withering Rates … (a, b, c, k)” value [9, 15] was 50 and the “Average Withering Rates … (a, b, c, k)” value [9, 16] was 87. For the same molecule, the “Average Withering Rates … (a, b, c, k)” value [9, 17] was 87 and the “Average Withering Rates … (a, b, c, k)” value [9, 18] was 95.

From patent publication EP0533925A1, “OPTICAL ISOMER OF R-FORM OF DIPHENYL ETHER DERIVATIVE AND HERBICIDE CONTAINING THE SAME AS ACTIVE INGREDIENT” (TEIJIN LIMITED, priority 1990, dated 1991)
